These results are taken from ChEMBL document CHEMBL2331298, “Flavonoids as receptor tyrosine kinase FLT3 inhibitors” (Bioorg Med Chem Lett, 2013).

In test [1] the target is T1, Receptor-type tyrosine-protein kinase FLT3 (Homo sapiens, UniProt P36888).
T1 sequence (P36888 whole entry): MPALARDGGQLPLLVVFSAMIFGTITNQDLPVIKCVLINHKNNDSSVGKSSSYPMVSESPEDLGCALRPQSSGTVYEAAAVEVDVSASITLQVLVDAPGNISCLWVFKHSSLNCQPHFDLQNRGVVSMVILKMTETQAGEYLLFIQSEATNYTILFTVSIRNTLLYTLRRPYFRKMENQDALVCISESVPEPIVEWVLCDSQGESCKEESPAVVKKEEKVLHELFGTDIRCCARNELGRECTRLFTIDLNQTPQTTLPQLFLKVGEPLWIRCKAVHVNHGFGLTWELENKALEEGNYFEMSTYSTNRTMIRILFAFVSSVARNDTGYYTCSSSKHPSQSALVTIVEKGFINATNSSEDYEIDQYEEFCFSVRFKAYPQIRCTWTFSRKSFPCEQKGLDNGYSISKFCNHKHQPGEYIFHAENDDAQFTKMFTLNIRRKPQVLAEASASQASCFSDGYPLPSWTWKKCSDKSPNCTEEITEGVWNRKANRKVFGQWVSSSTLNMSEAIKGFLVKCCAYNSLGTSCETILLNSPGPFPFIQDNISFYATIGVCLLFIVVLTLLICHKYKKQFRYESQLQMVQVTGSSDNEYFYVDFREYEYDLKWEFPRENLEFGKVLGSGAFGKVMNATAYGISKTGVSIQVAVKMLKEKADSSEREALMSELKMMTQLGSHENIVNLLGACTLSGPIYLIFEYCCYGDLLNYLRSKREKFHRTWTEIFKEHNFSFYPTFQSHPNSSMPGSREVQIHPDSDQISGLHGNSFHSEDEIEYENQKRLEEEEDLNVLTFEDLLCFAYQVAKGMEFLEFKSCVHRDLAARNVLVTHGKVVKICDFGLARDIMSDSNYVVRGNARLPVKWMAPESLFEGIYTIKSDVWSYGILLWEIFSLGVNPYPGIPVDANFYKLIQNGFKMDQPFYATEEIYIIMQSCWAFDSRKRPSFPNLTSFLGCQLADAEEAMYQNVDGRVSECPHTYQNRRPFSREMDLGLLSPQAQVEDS
The test can be described thus: Inhibition of recombinant FLT3 (unknown origin) by TR-FRET assay. On the technique in general: In TR-FRET formats the signal depends on donor and acceptor labels being close together.

Test [2] is described as follows: Cytotoxicity against human RS4:11 cells harboring wild type FLT3 after 72 hrs by tetrazolium based Ez CyTox cell viability assay. The test is classed as functional. The conditions noted are these: RS4-11, 72 h.
In test [3] the test system is MV4-11. Put plainly: Cytotoxicity against human MV4-11 cells harboring FLT3 mutation after 72 hrs by tetrazolium based Ez CyTox cell viability assay. The class given is functional. As to conditions: MV4-11, 72 h.
The subject of test [4] is MV4-11. Put plainly: Cell cycle arrest in human MV4-11 cells harboring FLT3 mutation assessed as accumulation at S phase at 0.1 uM after 48 hrs using propidium iodide staining by flow cytometry (reference value: 15.48%). The test is classed as functional.
Test [5] relates to MV4-11. Put plainly: Cell cycle arrest in human MV4-11 cells harboring FLT3 mutation assessed as accumulation at G1 phase at 0.1 uM after 48 hrs using propidium iodide staining by flow cytometry (reference value: 69.69%). The test is classed as functional. A general note: In flow cytometry, cells or beads pass a laser one at a time.
The test system of test [6] is MV4-11. The test can be described thus: Cell cycle arrest in human MV4-11 cells harboring FLT3 mutation assessed as accumulation at sub-G1 phase at 0.1 uM after 48 hrs using propidium iodide staining by flow cytometry (reference value: 3.86%). The test is classed as functional.
Test [7] deals with MV4-11. The test can be described thus: Cell cycle arrest in human MV4-11 cells harboring FLT3 mutation assessed as accumulation at G2/M phase at 10 uM after 48 hrs using propidium iodide staining by flow cytometry (reference value: 11.61%). The class given is functional.
Test [8] relates to MV4-11. Put plainly: Cell cycle arrest in human MV4-11 cells harboring FLT3 mutation assessed as accumulation at S phase at 10 uM after 48 hrs using propidium iodide staining by flow cytometry (reference value: 15.48%). The test is classed as functional.
In test [9] the test system is MV4-11. Put plainly: Cell cycle arrest in human MV4-11 cells harboring FLT3 mutation assessed as accumulation at G1 phase at 10 uM after 48 hrs using propidium iodide staining by flow cytometry (reference value: 69.69%). The test is classed as functional.
Test [10] has as its system MV4-11. Put plainly: Cell cycle arrest in human MV4-11 cells harboring FLT3 mutation assessed as accumulation at sub-G1 phase at 10 uM after 48 hrs using propidium iodide staining by flow cytometry (reference value: 3.86%). The class given is functional.
The test system of test [11] is MV4-11. The test can be described thus: Cell cycle arrest in human MV4-11 cells harboring FLT3 mutation assessed as accumulation at G2/M phase at 1 uM after 48 hrs using propidium iodide staining by flow cytometry (reference value: 11.61%). The test is classed as functional.
The test system of test [12] is MV4-11. Put plainly: Cell cycle arrest in human MV4-11 cells harboring FLT3 mutation assessed as accumulation at S phase at 1 uM after 48 hrs using propidium iodide staining by flow cytometry (reference value: 15.48%). The test is classed as functional.
Test [13] concerns MV4-11. The test can be described thus: Cell cycle arrest in human MV4-11 cells harboring FLT3 mutation assessed as accumulation at G1 phase at 1 uM after 48 hrs using propidium iodide staining by flow cytometry (reference value: 69.69%). The test is classed as functional.
The test system of test [14] is MV4-11. Put plainly: Cell cycle arrest in human MV4-11 cells harboring FLT3 mutation assessed as accumulation at sub-G1 phase at 1 uM after 48 hrs using propidium iodide staining by flow cytometry (reference value: 3.86%). The class given is functional.
For test [15], the system named is MV4-11. The test can be described thus: Cell cycle arrest in human MV4-11 cells harboring FLT3 mutation assessed as accumulation at G2/M phase at 0.1 uM after 48 hrs using propidium iodide staining by flow cytometry (reference value: 11.61%). The class given is functional.

Usually IC50 stands for the concentration at which inhibition is half-maximal. The GI50 is the concentration that inhibits growth by half. Low readings indicate greater sensitivity of the cells, high ones lower sensitivity of the cells.

For the compound `O=c1c(OC2O[C@H](CO)[C@H](O)[C@H](O)[C@H]2O)c(-c2ccc(O)c(O)c2)oc2cc(O)cc(O)c12` (stereo not given in full), in test [1], the IC50 was greater than 10 µM.

Consider `O=c1c(OC2O[C@H](CO)[C@@H](O)[C@H](O)[C@@H]2O)c(-c2ccc(O)c(O)c2)oc2cc(O)cc(O)c12` (stereo not given in full), for which the IC50 in test [1] was greater than 10 µM.

Consider `O=c1cc(-c2ccc(O)cc2)oc2cc(O)cc(O)c12` [APIGENIN], for which the GI50 was 27.9 µM in test [2] and 2.81 µM with MV4-11 [3]. For the same compound, the IC50 in test [1] was found to be 1.45 µM.

Regarding `O=c1cc(-c2ccccc2)oc2cc(O)c(O)c(O)c12` [BAICALEIN], the IC50 in test [1] was greater than 10 µM.

For the compound `O=c1cc(-c2ccccc2)oc2cc(O)cc(O)c12` [CHRYSIN], the IC50 in test [1] was greater than 10 µM.

With `O=C1c2c(O)cc(O)cc2O[C@H](c2ccc(O)cc2)[C@H]1O` [DIHYDROKAEMPFEROL], the IC50 in [1] was greater than 10 µM.

On to `O=C1C[C@@H](c2ccc(O)c(O)c2)Oc2cc(O)cc(O)c21` [ERIODICTYOL], for which the 50% inhibitory concentration (IC50) in test [1] is greater than 10 µM.

Consider `O=c1c(O)c(-c2ccccc2)oc2cc(O)cc(O)c12` [GALANGIN], for which the 50% inhibitory concentration (IC50) in test [1] was greater than 10 µM.

With `O=c1c(O[C@@H]2O[C@H](CO)[C@@H](O)[C@H](O)[C@H]2O)c(-c2ccc(O)c(O)c2)oc2cc(O)cc(O)c12` [ISOQUERCETIN], in test [1], the IC50 is greater than 10 µM.

With `O=c1c(O)c(-c2ccc(O)cc2)oc2cc(O)cc(O)c12` [KAEMPFEROL], the GI50 is greater than 50 µM in [2] and 3.34 µM with MV4-11 [3]. Also, the IC50 in test [1] was 2.32 µM.

In the case of `O=c1cc(-c2ccc(O)c(O)c2)oc2cc(O)cc(O)c12` [LUTEOLIN], the Activity amounted to 10.5% with MV4-11 [4]; 71.25% with MV4-11 [5]; 13.71% in the test with MV4-11 [6]; 0.51% in the test with MV4-11 [7]; 2.09% in the test on MV4-11 [8]; 66.68% with MV4-11 [9]. The Activity was 30.76% in the test on MV4-11 [10]; 4.2% with MV4-11 [11]; 12.8% in the test on MV4-11 [12]; 67.08% in the test with MV4-11 [13]; 16.42% in the test with MV4-11 [14]; 4.9% in the test on MV4-11 [15]. Also, the GI50 was found to be 7.25 µM in test [2] and 1.76 µM in the test with MV4-11 [3]. Also, the IC50 in test [1] was 0.83 µM.

Turning to `O=c1c(O)c(-c2cc(O)c(O)c(O)c2)oc2cc(O)cc(O)c12` [MYRICETIN], the concentration for 50% growth inhibition (GI50) (in [2]; in the test with MV4-11 [3]) was greater than 50 µM each time. Also, the half-maximal inhibitory concentration (IC50) in test [1] worked out at 1.69 µM.

`O=C1C[C@@H](c2ccc(O)cc2)Oc2cc(O)cc(O)c21` [NARINGENIN]: the half-maximal inhibitory concentration (IC50) in [1] was greater than 10 µM.

As for `COc1c(O)cc2oc(-c3ccccc3)cc(=O)c2c1O` [OROXYLIN A], the results for the concentration for 50% growth inhibition (GI50) (in [2]; in the test on MV4-11 [3]) were 40 µM and 5.59 µM, respectively. In test [1], the IC50 was determined as 1.48 µM.

Regarding `O=c1c(O)c(-c2ccc(O)c(O)c2)oc2cc(O)cc(O)c12` [QUERCETIN], the GI50 turned out to be 21.6 µM in test [2] and 13.1 µM in the test on MV4-11 [3]. For the same compound, the IC50 in test [1] was found to be 0.59 µM.

Consider `O=c1cc(-c2ccc(O)cc2)oc2cc(O)c(O)c(O)c12` [SCUTELLAREIN], for which the IC50 in [1] was greater than 10 µM.
